Source: patent publication US20110201656A1, “NOVEL DIPHENYL 1,2,3-TRIAZOLE DERIVATIVES USEFUL AS MODULATORS OF NICOTINIC ACETYLCHOLINE RECEPTORS” (NEUROSEARCH A/S, priority 2008, published 2011)

What was measured:
[1] = biological target: T1, wild-type nAChR α7 receptors (Homo sapiens, UniProt P36544); test: Positive modulation of nAChR α7 currents in Xenopus laevis oocytes (two-electrode voltage clamp); assay type: cell-based; conditions: nAChR α7 expressed in Xenopus laevis oocytes, clamped at −60 mV, 100 μM acetylcholine; for Emax: (test-control)/control×100%, read-out: calculated EC50 Imax (maximal modulation of the control response); for EC50: test compound 0.01-31.6 μM, read-out: calculated EC50 (positive modulation of acetylcholine-induced current)
T1 construct: expressed in transfected cells; host or cells: Xenopus laevis oocytes
T1 sequence (P36544 23-502): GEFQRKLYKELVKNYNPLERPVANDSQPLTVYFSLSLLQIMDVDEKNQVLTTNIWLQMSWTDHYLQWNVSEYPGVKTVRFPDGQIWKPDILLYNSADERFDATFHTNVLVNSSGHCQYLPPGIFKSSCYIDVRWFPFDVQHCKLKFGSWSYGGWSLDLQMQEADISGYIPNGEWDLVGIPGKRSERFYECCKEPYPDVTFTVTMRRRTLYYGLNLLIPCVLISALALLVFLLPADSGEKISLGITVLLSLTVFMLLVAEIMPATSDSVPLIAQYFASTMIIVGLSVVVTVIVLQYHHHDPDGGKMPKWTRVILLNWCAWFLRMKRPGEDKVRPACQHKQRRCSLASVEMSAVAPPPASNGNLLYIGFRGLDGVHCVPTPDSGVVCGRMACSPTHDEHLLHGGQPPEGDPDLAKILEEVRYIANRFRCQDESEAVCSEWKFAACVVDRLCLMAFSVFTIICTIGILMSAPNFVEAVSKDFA
Procedure: In this example the positive modulation of wild-type nAChR α7 receptors by Compounds 3, 7 and 8, representative of the invention, was determined using nAChR a7 receptors heterologously expressed in Xenopus laevis oocytes.
The electrical current through the nAChR α7 channel was measured using conventional two-electrode voltage clamp and nAChR α7 currents were activated by applying pulses of agonist-containing solution onto the nAChR α7 expressing oocyte.
In brief, the oocytes were placed in a recording chambers and continuously super-fused with an Oocyte Ringer (OR) solution containing 90 mM NaCl, 2.5 mM KCl, 2.5 mM CaCl2, 1 mM MgCl2 and 5 mM HEPES (pH adjusted to 7.4). The oocytes were clamped at −60 mV and currents were induced by applying 20 s pulses of 100 μM acetylcholine dissolved in OR. The intervals between the acetylcholine applications were 5 minutes, during which the oocytes were washed with OR. The first three applications were control applications to insure a constant response level of 100 μM acetylcholine. For the subsequent test applications, increasing concentrations (0.01-31.6 μM) of the test compound were applied 30 s before and during the acetylcholine (100 μM) application, which caused a robust increase in the acetylcholine-induced current amplitude.
The positive modulation in the presence of Compound 4 was calculated as (test-control)/control×100% and the concentration response curve for this positive modulation was fitted to the sigmoidal logistic equation: I=Imax/(1+(EC50/[compound])^n), where Imax represents the maximal modulation of the control response, EC50 is the concentration causing a half maximal response, and n is the slope coefficient.

| Compound | melting point [°C] | Emax [1] [%] | EC50 [1] [µM] |
| --- | --- | --- | --- |
| COc1ccc(-c2nnn(-c3ccc(C(F)(F)F)cc3F)c2C)cc1 [Compound 1, 1-(2-Fluoro-4-trifluoromethyl-phenyl)-4-(4-methoxy-phenyl)-5-methyl-1H-[1,2,3]triazole] | 96.5 to 98.9 |  |  |
| Cc1c(-c2ccc(O)cc2)nnn1-c1ccc(C(F)(F)F)cc1Cl [Compound 3, 4-[1-(2-Chloro-4-trifluoromethyl-phenyl)-5-methyl-1H-[1,2,3]triazol-4-yl]-phenol] |  | 119 | 14 |
| COc1ccc(-c2nnn(-c3ccc(C(F)(F)F)cc3Cl)c2CO)cc1 [Compound 7, [3-(2-Chloro-4-trifluoromethyl-phenyl)-5-(4-methoxy-phenyl)-3H-[1,2,3]triazol-4-yl]-methanol] |  | 128 | 17 |
| OCc1c(-c2ccc(O)cc2)nnn1-c1ccc(C(F)(F)F)cc1Cl [Compound 8, 4-[1-(2-Chloro-4-trifluoromethyl-phenyl)-5-hydroxymethyl-1H-[1,2,3]triazol-4-yl]-phenol] |  | 136 | 11 |
